Measurements published in patent US20150290280A1, “ANTIMICROBIAL ARTICLES PRODUCED BY ADDITIVE MANUFACTURING” (ORTHOPAEDIC INNOVATION CENTER INC., priority 2012, published 2015).

Columns and labels:
S. aureus = test: Elution of antibiotics from 3D-printed coupons assessed by inhibition of growth of S. aureus on Meuller Hinton agar (Examples 3 and 4); format: cell-based, Staphylococcus aureus; conditions: about 72 hrs, 35-37° C., 25 = coupon diameter = no inhibition; for zone of inhibition, articles comprising PCL polymer, antibiotic concentration 1%: 1% w/w antibiotic in PCL coupon; for zone of inhibition, articles comprising PLA, antibiotic concentration 1%: 1% w/w antibiotic in PLA coupon; for zone of inhibition, articles comprising PCL polymer, antibiotic concentration 2%: 2% w/w antibiotic in PCL coupon; for zone of inhibition, articles comprising PLA, antibiotic concentration 2%: 2% w/w antibiotic in PLA coupon; for zone of inhibition, articles comprising PCL polymer, antibiotic concentration 5%: 5% w/w antibiotic in PCL coupon; for zone of inhibition, articles comprising PLA, antibiotic concentration 5%: 5% w/w antibiotic in PLA coupon
Method: Control coupons having the same physical dimensions and appearance as the test coupons, were printed with the […]® MOJO® printer by feeding the control filaments through the extrusion nozzle. The 2% and 5% tobramycin/PLA test coupons were printed with an extrusion temperature of 170° C., while the PLA control coupons and the 1% tobramycin/PLA test coupons were printed with an extrusion temperature of 205° C. The N12 control coupons, the 1%, 2%, and 5% gentamicin/N12 coupons, and the 1%, 2%, and 5% vancomycin/N12 coupons were printed at an extrusion temperature of 195° C. The remaining control coupons and test coupons were printed with an extrusion temperature of 170° C. The elution of antibiotics from the test coupons produced in Example 2 was assessed by the inhibition of the growth of S. aureus on the surfaces of Meuller Hinton agar contained within Petri dishes onto which test coupons placed. S. aureus cultures were grown on TSA amended with 5% sheep blood. A sufficient amount of S. aureus culture was transferred from the TSA culture plates to a 0.85% sterile saline solution to provide a uniform suspension that fell within a 0.5-2.0 McFarland turbidity standard. Aliquots of the S. aureus culture were plated onto Meuller Hinton agar in Petri dishes after which, two test coupons/dish (or alternatively, control coupons) were placed on the agar; one with its shiny side up and the other with its matte side up. The Meuller Hinton agar-containing Petri dishes were then incubated for about 72 hrs at temperatures in the range of about 35° C. to about 37° C. The zones of inhibition around each coupon were then measured and recorded (in mm) A clear zone around a test coupon indicates the inhibition of growth of S. aureus. […] The data shown in Tables 10, 11, and 12 confirm that all three antibiotics tested, i.e., tobramycin, gentamicin, and vancomycin, were eluted from articles printed with extruded antibiotic-containing polymers as evidenced by zones of inhibition of S. aureus cultures by articles comprising PLA polymer (Table 10), inhibition of S. aureus cultures by articles comprising PCL polymer (Table 11), and inhibition of S. aureus cultures by articles comprising HPDE polymer (Table 12). […] The control coupons for this study were taken from the batch of control coupons produced in Example 1. […] The data shown in Table 14 confirm that the three antibiotics were eluted from articles printed with extruded polymers comprising the three antibiotics.

Staphylococcus aureus = test: Zones of inhibition around 3D-printed coupons on S. aureus plated on Tryptic soy agar (Example 1); format: cell-based; conditions: 3D-printed PLA coupon (25 mm diameter) comprising 1% tobramycin; shiny side down; TSA; 72 h at 37° C.
Method: The 1% tobramycin/PLA filament was supplied to the extrusion nozzle of a STRATASYS® MOJO® FDM® 3D printer (STRATASYS and MOJO are registered trademarks of Stratasys Inc., Eden Prairie, Minn., USA) to print replicate test coupons with an extrusion temperature of 205° C. […] Control coupons having the same physical dimensions and appearance as the test coupons, were printed with the STRATASYS® MOJO® FDM® 3D printer by feeding the control PLA filament through the extrusion nozzle at an extrusion temperature of 205° C.
Aliquots of a culture of Staphylococcus aureus grown in Tryptic soy broth (TSB) were plated onto the surface of Tryptic soy agar (TSA) contained within Petri plates. Two test coupons were placed onto the plated S. aureus culture in a Petri plate with one shiny side down and one matte side down. Two control coupons were placed onto the plated S. aureus culture in a Petri plate with one shiny side down and one matte side down. Triplicate plates were prepared with test coupon and with control coupons. The Petri plates were incubated for 72 h at 37° C. after which, the plates were examined for the occurrence of zones of inhibition around the coupons. No inhibition of the growth of S. aureus in the Petri plates receiving the control coupons. […]

Molecule: gentamicin
- zone of inhibition, articles comprising PCL polymer, antibiotic concentration 1% (S. aureus): 32.0 mm
- zone of inhibition, articles comprising PLA, antibiotic concentration 1% (S. aureus): 34.0 mm
- zone of inhibition, articles comprising PCL polymer, antibiotic concentration 2% (S. aureus): 38.5 mm
- zone of inhibition, articles comprising PLA, antibiotic concentration 2% (S. aureus): 26.5 mm
- zone of inhibition, articles comprising PCL polymer, antibiotic concentration 5% (S. aureus): 41.0 mm
- zone of inhibition, articles comprising PLA, antibiotic concentration 5% (S. aureus): 37.5 mm

Molecule: CN[C@H](CC(C)C)C(=O)N[C@H]1C(=O)N[C@@H](CC(N)=O)C(=O)N[C@H]2C(=O)N[C@H]3C(=O)N[C@H](C(=O)N[C@H](C(=O)O)c4cc(O)cc(O)c4-c4cc3ccc4O)[C@H](O)c3ccc(c(Cl)c3)Oc3cc2cc(c3O[C@@H]2O[C@H](CO)[C@@H](O)[C@H](O)[C@H]2O[C@H]2C[C@](C)(N)[C@H](O)[C@H](C)O2)Oc2ccc(cc2Cl)[C@H]1O [Vancomycin, vancomycin]
- zone of inhibition, articles comprising PCL polymer, antibiotic concentration 1% (S. aureus): 28.5 mm
- zone of inhibition, articles comprising PCL polymer, antibiotic concentration 2% (S. aureus): 25 mm
- zone of inhibition, articles comprising PCL polymer, antibiotic concentration 5% (S. aureus): 28.5 mm

Molecule: NC[C@H]1O[C@H](O[C@H]2[C@H](O)[C@@H](O[C@H]3O[C@H](CO)[C@@H](O)[C@H](N)[C@H]3O)[C@H](N)C[C@@H]2N)[C@H](N)C[C@@H]1O [Tobramycin, tobramycin]
- zones of inhibition in the growth of S. aureus around the shiny surfaces (Staphylococcus aureus): 37.7 mm
- zone of inhibition, articles comprising HDPE polymer, antibiotic concentration 1% (S. aureus; 1% w/w antibiotic in HDPE coupon): 27.0 mm
- zone of inhibition, articles comprising PLA, antibiotic concentration 1% (S. aureus): 37.7 mm
- zone of inhibition, articles comprising HDPE polymer, antibiotic concentration 2% (S. aureus; 2% w/w antibiotic in HDPE coupon): 28.5 mm
- zone of inhibition, articles comprising PLA, antibiotic concentration 2% (S. aureus): 27.5 mm
- zone of inhibition, articles comprising HDPE polymer, antibiotic concentration 5% (S. aureus; 5% w/w antibiotic in HDPE coupon): 37.5 mm
- zone of inhibition, articles comprising PLA, antibiotic concentration 5% (S. aureus): 28 mm
